Test results reported in patent publication US10647673B2, “Acetophenone compound, preparation method thereof, and application thereof in fatty liver prevention and treatment” (Nanjing Bioenergy Medicine Science & Technology Co., Ltd., priority 2017, dated 2020).

Test system: fatty liver of the SD rats
Experiment: Pathological sections and grading of fatty liver of SD rats
Assay type: in vivo
Settings: compounds 80 mg/kg, Sim 10 mg/kg, OCA 10 mg/kg
Experimental: 500 g of lard oil was taken, placed in a container, and heated to melt. When the temperature rose to 100° C., it was added with 200 g of cholesterol to dissolve completely, and then further added with 20 g of propylthiouracil. The resulted mixture was stirred well, and added with 500 ml of Tween 80 after dissolution, resulting in an oil phase. At the same time, 600 mL of distilled water and 400 mL of 1,2-propanediol were taken and heated to 60° C. in a water bath, then were added with 40 g of sodium deoxycholate. The resulted mixture was stirred well until realizing complete dissolution, so as to give an aqueous phase. The aqueous phase was added into the oil phase and mixed well to give a lipid emulsion. The lipid emulsion was heated in a water bath of 37° C. before intragastric administration to animals.
An appropriate amount of pharmaceutical was weighed, added with 0.5% CMC-Na, and mixed homogeneously by grinding. There are groups for Compound 01 (80 mg/kg), Compound 02 (80 mg/kg), Compound 03 (80 mg/kg), Compound 04 (80 mg/kg), Compound 05 (80 mg/kg), Compound 06 (80 mg)/kg), Compound 07 (80 mg/kg), Compound 08 (80 mg/kg), Compound 09 (80 mg/kg), Compound 10 (80 mg/kg), Compound 11 (80 mg/kg), Compound 12 (80 mg/kg), Compound 13 (80 mg/kg), Compound 14 (80 mg/kg), Compound 15 (80 mg/kg), Compound 16 (80 mg/kg), Compound 17 (80 mg/kg), Compound 18 (80 mg/kg), Compound 19 (80 mg/kg), Compound 20 (80 mg/kg), Compound 21 (80 mg/kg), and Compound 22 (80 mg/kg).
Male SD rats weighing 180-200 g were fed adaptively for 7 days. Based on body weight, 10 animals were used as control and the remaining animals were intragastrically administered with the lipid emulsion every day, 1 ml/100 g body weight for 14 days. After fasting for 12 hours, 1 mL of blood was collected from the orbits of the animals, and was determined by Hitachi Automatic Biochemical Analyzer 7080 for serum cholesterol (CHO), triglyceride (TG), low density lipoprotein (LDL-C) and high density lipoprotein (HDL-C).
The modeled rats were continued with the intragastric administration of the lipid emulsion. At the same time, the pharmaceutical-administered groups were administrated with a corresponding dose of pharmaceuticals, while the Model group was administrated with an equal volume of solvent. The pharmaceutical-administered groups were administrated with the lipid emulsion in the morning, and with the pharmaceuticals in the afternoon. The animals were measured for the body weight once a week, and were observed. After 14 days of continuous administration, 1 mL of blood was collected from the orbits, and was determined for the contents of triglyceride, cholesterol, low density lipoprotein and high density lipoprotein in blood serum.

| SMILES | Pathological grading: Steatotic hepatocytes (animal 1) | Pathological grading: Steatotic hepatocytes (animal 2) | Pathological grading: Steatotic hepatocytes (animal 3) | Pathological grading: Steatotic hepatocytes (animal 4) | Pathological grading: Steatotic hepatocytes (animal 5) |
| --- | --- | --- | --- | --- | --- |
| CC(=O)c1ccc(O)c(NC(=O)c2cccnc2)c1 [Compound 06] | + (25-45% of hepatocytes undergoing steatosis) | ++ (45-65% of hepatocytes undergoing steatosis) | ++ (45-65% of hepatocytes undergoing steatosis) | + (25-45% of hepatocytes undergoing steatosis) | ++ (45-65% of hepatocytes undergoing steatosis) |
| CC(=O)c1ccc(NC(=O)C(C)(C)Oc2ccc(C3CC3(Cl)Cl)cc2)cc1 (stereo not drawn) [Compound 10] | ++ (45-65% of hepatocytes undergoing steatosis) | ++ (45-65% of hepatocytes undergoing steatosis) | + (25-45% of hepatocytes undergoing steatosis) | ++ (45-65% of hepatocytes undergoing steatosis) | ++ (45-65% of hepatocytes undergoing steatosis) |
| CC(C)(Oc1ccc(Cl)cc1)C(=O)Nc1ccc(C(=O)CNC(=O)c2cccnc2)cc1 [Compound 17] | + (25-45% of hepatocytes undergoing steatosis) | ++ (45-65% of hepatocytes undergoing steatosis) | ++ (45-65% of hepatocytes undergoing steatosis) | ++ (45-65% of hepatocytes undergoing steatosis) | ++ (45-65% of hepatocytes undergoing steatosis) |
| CC(=O)c1ccc(NC(=O)c2cccnc2)cc1 [Compound 01] | ++ (45-65% of hepatocytes undergoing steatosis) | ++ (45-65% of hepatocytes undergoing steatosis) | ++ (45-65% of hepatocytes undergoing steatosis) | ++ (45-65% of hepatocytes undergoing steatosis) | ++ (45-65% of hepatocytes undergoing steatosis) |
| CC(=O)c1ccc(NC(=O)c2cccnc2)c(O)c1 [Compound 20] | ++ (45-65% of hepatocytes undergoing steatosis) | +++ (65-85% or more of hepatocytes undergoing steatosis) | ++ (45-65% of hepatocytes undergoing steatosis) | ++ (45-65% of hepatocytes undergoing steatosis) | ++ (45-65% of hepatocytes undergoing steatosis) |
| Cc1ccc(C)c(OCCCC(C)(C)C(=O)NCC(=O)c2ccc(N)cc2)c1 [Compound 04] | ++ (45-65% of hepatocytes undergoing steatosis) | ++ (45-65% of hepatocytes undergoing steatosis) | ++ (45-65% of hepatocytes undergoing steatosis) | +++ (65-85% or more of hepatocytes undergoing steatosis) | ++ (45-65% of hepatocytes undergoing steatosis) |
| CC(=O)c1ccc(O)c(CCCOC(=O)c2cccnc2)c1 [Compound 16] | + (25-45% of hepatocytes undergoing steatosis) | ++ (45-65% of hepatocytes undergoing steatosis) | +++ (65-85% or more of hepatocytes undergoing steatosis) | ++ (45-65% of hepatocytes undergoing steatosis) | + (25-45% of hepatocytes undergoing steatosis) |
| Nc1ccc(C(=O)CNC(=O)c2cccnc2)cc1 [Compound 03] | ++ (45-65% of hepatocytes undergoing steatosis) | + (25-45% of hepatocytes undergoing steatosis) | +++ (65-85% or more of hepatocytes undergoing steatosis) | ++ (45-65% of hepatocytes undergoing steatosis) | ++ (45-65% of hepatocytes undergoing steatosis) |
| CC(=O)c1ccc(O)c(NC(=O)C(C)(C)CCCOc2cc(C)ccc2C)c1 [Compound 05] | + (25-45% of hepatocytes undergoing steatosis) | +++ (65-85% or more of hepatocytes undergoing steatosis) | ++ (45-65% of hepatocytes undergoing steatosis) | ++ (45-65% of hepatocytes undergoing steatosis) | + (25-45% of hepatocytes undergoing steatosis) |
| Cc1ccc(C)c(OCCCC(C)(C)C(=O)NCC(=O)c2ccc(NC(=O)c3cccnc3)cc2)c1 [Compound 11] | + (25-45% of hepatocytes undergoing steatosis) | ++ (45-65% of hepatocytes undergoing steatosis) | ++ (45-65% of hepatocytes undergoing steatosis) | ++ (45-65% of hepatocytes undergoing steatosis) | + (25-45% of hepatocytes undergoing steatosis) |
| CC(=O)c1ccc(NC(=O)C(C)(C)Oc2ccc(Cl)cc2)c(O)c1 [Compound 19] | ++ (45-65% of hepatocytes undergoing steatosis) | ++ (45-65% of hepatocytes undergoing steatosis) | ++ (45-65% of hepatocytes undergoing steatosis) | +++ (65-85% or more of hepatocytes undergoing steatosis) | + (25-45% of hepatocytes undergoing steatosis) |
| CC(=O)c1ccc(NC(=O)C(C)(C)CCCOc2cc(C)ccc2C)c(O)c1 [Compound 18] | + (25-45% of hepatocytes undergoing steatosis) | + (25-45% of hepatocytes undergoing steatosis) | ++ (45-65% of hepatocytes undergoing steatosis) | ++ (45-65% of hepatocytes undergoing steatosis) | ++ (45-65% of hepatocytes undergoing steatosis) |
| CC(=O)c1ccc(O)c(CCCOC(=O)C(C)(C)CCCOc2cc(C)ccc2C)c1 [Compound 15] | ++ (45-65% of hepatocytes undergoing steatosis) | +++ (65-85% or more of hepatocytes undergoing steatosis) | ++ (45-65% of hepatocytes undergoing steatosis) | ++ (45-65% of hepatocytes undergoing steatosis) | ++ (45-65% of hepatocytes undergoing steatosis) |
| CC(=O)c1ccc(NC(=O)C(C)(C)Oc2ccc(C(=O)c3cccc(Cl)c3)cc2)cc1 [Compound 07] | ++ (45-65% of hepatocytes undergoing steatosis) | ++ (45-65% of hepatocytes undergoing steatosis) | ++ (45-65% of hepatocytes undergoing steatosis) | ++ (45-65% of hepatocytes undergoing steatosis) | + (25-45% of hepatocytes undergoing steatosis) |
| CC(=O)c1ccc(NC(=O)C(C)(C)Oc2ccc(Cl)cc2)cc1 [Compound 08] | ++ (45-65% of hepatocytes undergoing steatosis) | ++ (45-65% of hepatocytes undergoing steatosis) | + (25-45% of hepatocytes undergoing steatosis) | ++ (45-65% of hepatocytes undergoing steatosis) | + (25-45% of hepatocytes undergoing steatosis) |
